Results taken from BindingDB's records for doi:10.1021/jm990135j (Taisho Pharmaceutical, 1999).
Structures can show the parent of a compound that is named as a salt.

Columns and labels:
[1] = biological target: Sigma non-opioid intracellular receptor 1 (Cavia porcellus) (UniProt Q60492); test: In vitro binding affinity at Sigma opioid receptors on guinea pig brain membranes by [3H]-3-PPP displacement.
[2] = In vitro binding affinity at Sigma opioid receptors on guinea pig brain membranes by [3H]3-PPP displacement.
[3] = biological target: Sigma-2 receptor (guinea pig); test: TIn vitro binding affinity at Sigma opioid receptor type 2 on guinea pig brain membranes by [3H]DTG displacement in the presence of […].

Chain of Sigma non-opioid intracellular receptor 1 (Cavia porcellus) (Q60492 whole entry, looked up): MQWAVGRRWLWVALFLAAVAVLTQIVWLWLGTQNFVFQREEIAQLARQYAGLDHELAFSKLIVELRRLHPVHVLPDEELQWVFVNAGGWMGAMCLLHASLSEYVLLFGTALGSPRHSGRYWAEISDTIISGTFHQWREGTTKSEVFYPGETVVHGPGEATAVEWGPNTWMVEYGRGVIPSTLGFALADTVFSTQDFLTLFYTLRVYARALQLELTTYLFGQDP

Row | Structure (SMILES) | IC50 [1] | IC50 [2] | IC50 [3]
1 | CCCC(N)(CCC)Cc1ccc(OC)c(OCCc2ccccc2)c1 [1-(4-Methoxy-3-phenethyloxy-benzyl)-1-propyl-butylamine; compound with (E)-but-2-enedioic acid] | > 1000 nM |  | 
2 | CCCCCCC(N)Cc1ccc(OC)c(OCCc2ccccc2)c1 (centres undefined) [1-(4-Methoxy-3-phenethyloxy-benzyl)-heptylamine] |  | 170 nM | 
3 | CCCCCC(N)Cc1ccc(OC)c(OCCc2ccccc2)c1 (centres undefined) [1-(4-Methoxy-3-phenethyloxy-benzyl)-hexylamine; hydrochloride] |  | 110 nM | 
4 | CCCCCCCCC(N)Cc1ccc(OC)c(OCCc2ccccc2)c1 (centres undefined) [1-(4-Methoxy-3-phenethyloxy-benzyl)-nonylamine] |  | > 1000 nM | 
5 | CCCCCCCC(N)Cc1ccc(OC)c(OCCc2ccccc2)c1 (centres undefined) [1-(4-Methoxy-3-phenethyloxy-benzyl)-octylamine] |  | 420 nM | 
6 | CCCCC(N)Cc1ccc(OC)c(OCCc2ccccc2)c1 (centres undefined) [1-(4-Methoxy-3-phenethyloxy-benzyl)-pentylamine] |  | 160 nM | 
7 | CCC(N)Cc1ccc(OC)c(OCCc2ccccc2)c1 (centres undefined) [1-(4-Methoxy-3-phenethyloxy-benzyl)-propylamine; hydrochloride] |  | > 1000 nM | 
8 | COc1ccc(CC(C)N)cc1OCCc1ccccc1 (centres undefined) [2-(4-Methoxy-3-phenethyloxy-phenyl)-1-methyl-ethylamine; hydrochloride] |  | > 1000 nM | 
9 | CCCC(Cc1ccc(OC)c(OCCc2ccccc2)c1)N(CCC)CCC (centres undefined) [[1-(4-Methoxy-3-phenethyloxy-benzyl)-butyl]-dipropyl-amine] |  | 9.5 nM | 420 nM
10 | CCCCCCC(Cc1ccc(OC)c(OCCc2ccccc2)c1)N(CCC)CCC (centres undefined) [[1-(4-Methoxy-3-phenethyloxy-benzyl)-heptyl]-dipropyl-amine] |  | 150 nM | 
11 | CCCCCCC(Cc1ccc(OC)c(OCCc2ccccc2)c1)NCCC (centres undefined) [[1-(4-Methoxy-3-phenethyloxy-benzyl)-heptyl]-propyl-amine] |  | 9 nM | 230 nM
12 | CCCCCC(Cc1ccc(OC)c(OCCc2ccccc2)c1)N(CCC)CCC (centres undefined) [[1-(4-Methoxy-3-phenethyloxy-benzyl)-hexyl]-dipropyl-amine; hydrochloride] | 30 nM |  | 
13 | CCCCCC(Cc1ccc(OC)c(OCCc2ccccc2)c1)NCCC (centres undefined) [[1-(4-Methoxy-3-phenethyloxy-benzyl)-hexyl]-propyl-amine; hydrochloride] |  | 1.5 nM | 110 nM
14 | CCCCCCCCC(Cc1ccc(OC)c(OCCc2ccccc2)c1)N(CCC)CCC (centres undefined) [[1-(4-Methoxy-3-phenethyloxy-benzyl)-nonyl]-dipropyl-amine] |  | > 1000 nM | 
15 | CCCCCCCCC(Cc1ccc(OC)c(OCCc2ccccc2)c1)NCCC (centres undefined) [[1-(4-Methoxy-3-phenethyloxy-benzyl)-nonyl]-propyl-amine] |  | 170 nM | 
16 | CCCCCCCC(Cc1ccc(OC)c(OCCc2ccccc2)c1)N(CCC)CCC (centres undefined) [[1-(4-Methoxy-3-phenethyloxy-benzyl)-octyl]-dipropyl-amine] |  | 230 nM | 
17 | CCCCC(Cc1ccc(OC)c(OCCc2ccccc2)c1)N(CCC)CCC (centres undefined) [[1-(4-Methoxy-3-phenethyloxy-benzyl)-pentyl]-dipropyl-amine] |  | 29 nM | 
18 | CCCNC(CC)Cc1ccc(OC)c(OCCc2ccccc2)c1 (centres undefined) [[1-(4-Methoxy-3-phenethyloxy-benzyl)-propyl]-propyl-amine] |  | 8 nM | 330 nM
19 | CCCN(CCC)C(C)Cc1ccc(OC)c(OCCc2ccccc2)c1 (centres undefined) [[2-(4-Methoxy-3-phenethyloxy-phenyl)-1-methyl-ethyl]-dipropyl-amine] |  | 12 nM | 
20 | CCCNC(C)Cc1ccc(OC)c(OCCc2ccccc2)c1 (centres undefined) [[2-(4-Methoxy-3-phenethyloxy-phenyl)-1-methyl-ethyl]-propyl-amine; hydrochloride] |  | 10 nM | 
